Measured values from patent US20180256673A1, “METHODS FOR TREATING FUNGAL INFECTIONS” (priority 2015, published 2018).
Where “and” joins values, the source holds several entries; their conditions need not be identical. Equal values may be shown once. Read-outs that look alike come from different tables or passages of the source. Starred links: 1 amine or outer side, 2 acyl side, 3 side chain; linkers in the order of their positions; H or OH if unused. Positions of bridges follow the written chain, without caps; N, C: chain ends. Non-standard residues stand in square brackets, D forms with d. Residues, ends and D or L forms follow the SMILES beside them. *: point of attachment. Orn(4R-OH,5R-OCH2CH2NMe3+) = C[N+](C)(C)CCO[C@@H](N[*:3])[C@H](O)C[C@H](N[*:1])C(=O)[*:2]; pTerphenylCO(4''-OnC5H11) = CCCCCOc1ccc(-c2ccc(-c3ccc(C(=O)*)cc3)cc2)cc1; hTyr(3S-OH,4S-OH) = N[C@H](C(=O)O)[C@H](O)[C@@H](O)c1ccc(O)cc1; Pro(3S-OH,4S-Me) = C[C@H]1CN[C@H](C(=O)O)[C@H]1O; Hyp = O=C(O)[C@@H]1C[C@@H](O)CN1

Columns and labels:
C. glabrata [1] = experiment: Mutant prevention concentration (MPC) determination; assay type: cell-based, Candida glabrata; conditions: wild-type isolates; 24 hr, ~1×10^7 CFU/mL
C. albicans NRRL Y-477 [2] = assay type: cell-based, Candida albicans
Experimental: (§1) Spontaneous mutant selection. […] Three individual colonies from each strain were used to start cultures in RPMI. […] One milliliter aliquots were spread onto SDA plates containing drug with sterile glass beads. Starting viable count was enumerated by triplicate plating of serial dilutions of the starting inoculum. […] Glycerol stocks of putative mutant colonies were stored at −80° C. […] Spontaneous mutation frequencies were calculated by dividing the number of resistant colonies on a given plate by the starting inoculum plated. A subset of mutants (weighted heavily towards those selected with CMP1) were then evaluated by MIC and sequencing of FKS gene hot spot regions.

C. krusei ATCC 6258 = assay type: cell-based, Candida krusei
Experimental: as §1

[3] = tested on: C. glabrata ATCC 90030, ATCC 2001; experiment: microbe, parasite or virus in culture; assay type: cell-based, Candida glabrata; conditions: Nakaseomyces glabratus
[4] = tested on: C. glabrata vaginal isolates; experiment: Susceptibility testing of VVC clinical isolates at pH 7 and 4 (CLSI M27-A3); assay type: cell-based, Candida glabrata; conditions: for MIC90: Nakaseomyces glabratus
[5] = tested on: C. parapsilosis vaginal isolates; experiment: as above; assay type: cell-based, Candida parapsilosis
[6] = tested on: C. tropicalis vaginal isolates; experiment: as above; assay type: cell-based; conditions: Candida tropicalis
Candida tropicalis = experiment: Broth microdilution of invasive fungal isolates (CLSI M27-A3/M38-A2); assay type: cell-based
Candida krusei = experiment: as above; assay type: cell-based; conditions: 16 isolates
Candida dubliniensis = experiment: as above; assay type: cell-based; conditions: 11 isolates
Candida orthopsilosis = experiment: as above; assay type: cell-based; conditions: 10 isolates
[7] = tested on: azole-resistant Candida albicans (R357); experiment: Disseminated infection model in neutropenic ICR mice, kidney fungal counts (Example 10, Tables 22-23); assay type: in vivo
[8] = target: 1,3-β-D-glucan synthase from C. albicans (Candida albicans, UniProt O13428); experiment: Glucan synthase (GS) inhibition assay
[9] = target: 1,3-β-D-glucan synthase from C. albicans (Candida albicans, UniProt O13428, F641S); experiment: Glucan synthase (GS) inhibition assay; conditions: IC50, DPL18; Fks1 F641S
Sequence of 1,3-β-D-glucan synthase from C. albicans (Candida albicans, UniProt O13428, F641S) (O13428 entry or part of it F641S): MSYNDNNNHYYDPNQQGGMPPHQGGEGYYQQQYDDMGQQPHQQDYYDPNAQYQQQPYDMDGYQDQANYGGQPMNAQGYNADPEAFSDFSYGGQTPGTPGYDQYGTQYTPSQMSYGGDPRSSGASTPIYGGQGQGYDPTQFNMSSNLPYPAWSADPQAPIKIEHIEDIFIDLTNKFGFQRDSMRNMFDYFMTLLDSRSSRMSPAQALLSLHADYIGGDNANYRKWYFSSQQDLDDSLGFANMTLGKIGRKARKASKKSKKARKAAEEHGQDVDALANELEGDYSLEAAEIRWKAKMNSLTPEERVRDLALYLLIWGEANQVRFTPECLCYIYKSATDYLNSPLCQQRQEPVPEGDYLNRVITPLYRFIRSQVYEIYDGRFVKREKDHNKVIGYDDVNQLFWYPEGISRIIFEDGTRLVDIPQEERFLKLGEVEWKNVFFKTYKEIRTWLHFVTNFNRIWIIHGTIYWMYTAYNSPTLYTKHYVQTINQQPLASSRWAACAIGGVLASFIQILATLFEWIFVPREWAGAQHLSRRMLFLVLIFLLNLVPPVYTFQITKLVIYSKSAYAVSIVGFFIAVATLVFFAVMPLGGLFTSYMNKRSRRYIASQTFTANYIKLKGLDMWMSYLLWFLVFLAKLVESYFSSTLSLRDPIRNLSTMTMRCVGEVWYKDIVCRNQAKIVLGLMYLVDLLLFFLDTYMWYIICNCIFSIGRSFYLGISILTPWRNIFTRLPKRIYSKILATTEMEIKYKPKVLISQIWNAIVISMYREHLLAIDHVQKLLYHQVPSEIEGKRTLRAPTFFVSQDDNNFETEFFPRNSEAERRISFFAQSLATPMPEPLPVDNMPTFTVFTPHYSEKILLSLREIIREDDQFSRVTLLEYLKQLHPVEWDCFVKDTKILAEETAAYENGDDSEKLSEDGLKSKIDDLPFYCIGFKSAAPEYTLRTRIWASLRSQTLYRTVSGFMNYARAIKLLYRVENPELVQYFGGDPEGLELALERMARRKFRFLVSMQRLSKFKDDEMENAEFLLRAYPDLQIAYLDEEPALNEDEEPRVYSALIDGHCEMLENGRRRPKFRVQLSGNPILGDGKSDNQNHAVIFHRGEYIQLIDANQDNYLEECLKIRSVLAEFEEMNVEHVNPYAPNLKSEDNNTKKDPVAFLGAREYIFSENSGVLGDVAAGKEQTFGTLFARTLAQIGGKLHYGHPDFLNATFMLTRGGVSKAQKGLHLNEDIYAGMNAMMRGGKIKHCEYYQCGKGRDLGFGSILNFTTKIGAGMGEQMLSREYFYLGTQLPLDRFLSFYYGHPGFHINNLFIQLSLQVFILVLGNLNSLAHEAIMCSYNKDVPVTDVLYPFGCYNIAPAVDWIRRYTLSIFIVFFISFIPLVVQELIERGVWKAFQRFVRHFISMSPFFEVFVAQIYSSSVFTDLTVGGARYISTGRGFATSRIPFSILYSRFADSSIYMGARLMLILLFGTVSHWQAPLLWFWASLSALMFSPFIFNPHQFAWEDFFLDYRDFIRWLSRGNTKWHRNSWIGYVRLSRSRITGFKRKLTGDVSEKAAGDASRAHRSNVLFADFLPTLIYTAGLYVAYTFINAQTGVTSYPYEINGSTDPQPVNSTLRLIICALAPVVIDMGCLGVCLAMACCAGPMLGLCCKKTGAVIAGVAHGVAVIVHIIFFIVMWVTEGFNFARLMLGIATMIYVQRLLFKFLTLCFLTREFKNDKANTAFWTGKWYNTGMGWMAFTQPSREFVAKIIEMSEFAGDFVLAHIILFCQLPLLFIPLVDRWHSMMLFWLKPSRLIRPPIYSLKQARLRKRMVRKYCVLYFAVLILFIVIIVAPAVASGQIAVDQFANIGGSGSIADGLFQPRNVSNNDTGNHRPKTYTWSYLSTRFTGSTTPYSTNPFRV

[10] = target: 1,3-β-D-glucan synthase from C. albicans (Candida albicans, UniProt O13428, S645P); experiment: Glucan synthase (GS) inhibition assay; conditions: IC50, DPL20; Fks1 S645P
Sequence of 1,3-β-D-glucan synthase from C. albicans (Candida albicans, UniProt O13428, S645P) (O13428 entry or part of it S645P): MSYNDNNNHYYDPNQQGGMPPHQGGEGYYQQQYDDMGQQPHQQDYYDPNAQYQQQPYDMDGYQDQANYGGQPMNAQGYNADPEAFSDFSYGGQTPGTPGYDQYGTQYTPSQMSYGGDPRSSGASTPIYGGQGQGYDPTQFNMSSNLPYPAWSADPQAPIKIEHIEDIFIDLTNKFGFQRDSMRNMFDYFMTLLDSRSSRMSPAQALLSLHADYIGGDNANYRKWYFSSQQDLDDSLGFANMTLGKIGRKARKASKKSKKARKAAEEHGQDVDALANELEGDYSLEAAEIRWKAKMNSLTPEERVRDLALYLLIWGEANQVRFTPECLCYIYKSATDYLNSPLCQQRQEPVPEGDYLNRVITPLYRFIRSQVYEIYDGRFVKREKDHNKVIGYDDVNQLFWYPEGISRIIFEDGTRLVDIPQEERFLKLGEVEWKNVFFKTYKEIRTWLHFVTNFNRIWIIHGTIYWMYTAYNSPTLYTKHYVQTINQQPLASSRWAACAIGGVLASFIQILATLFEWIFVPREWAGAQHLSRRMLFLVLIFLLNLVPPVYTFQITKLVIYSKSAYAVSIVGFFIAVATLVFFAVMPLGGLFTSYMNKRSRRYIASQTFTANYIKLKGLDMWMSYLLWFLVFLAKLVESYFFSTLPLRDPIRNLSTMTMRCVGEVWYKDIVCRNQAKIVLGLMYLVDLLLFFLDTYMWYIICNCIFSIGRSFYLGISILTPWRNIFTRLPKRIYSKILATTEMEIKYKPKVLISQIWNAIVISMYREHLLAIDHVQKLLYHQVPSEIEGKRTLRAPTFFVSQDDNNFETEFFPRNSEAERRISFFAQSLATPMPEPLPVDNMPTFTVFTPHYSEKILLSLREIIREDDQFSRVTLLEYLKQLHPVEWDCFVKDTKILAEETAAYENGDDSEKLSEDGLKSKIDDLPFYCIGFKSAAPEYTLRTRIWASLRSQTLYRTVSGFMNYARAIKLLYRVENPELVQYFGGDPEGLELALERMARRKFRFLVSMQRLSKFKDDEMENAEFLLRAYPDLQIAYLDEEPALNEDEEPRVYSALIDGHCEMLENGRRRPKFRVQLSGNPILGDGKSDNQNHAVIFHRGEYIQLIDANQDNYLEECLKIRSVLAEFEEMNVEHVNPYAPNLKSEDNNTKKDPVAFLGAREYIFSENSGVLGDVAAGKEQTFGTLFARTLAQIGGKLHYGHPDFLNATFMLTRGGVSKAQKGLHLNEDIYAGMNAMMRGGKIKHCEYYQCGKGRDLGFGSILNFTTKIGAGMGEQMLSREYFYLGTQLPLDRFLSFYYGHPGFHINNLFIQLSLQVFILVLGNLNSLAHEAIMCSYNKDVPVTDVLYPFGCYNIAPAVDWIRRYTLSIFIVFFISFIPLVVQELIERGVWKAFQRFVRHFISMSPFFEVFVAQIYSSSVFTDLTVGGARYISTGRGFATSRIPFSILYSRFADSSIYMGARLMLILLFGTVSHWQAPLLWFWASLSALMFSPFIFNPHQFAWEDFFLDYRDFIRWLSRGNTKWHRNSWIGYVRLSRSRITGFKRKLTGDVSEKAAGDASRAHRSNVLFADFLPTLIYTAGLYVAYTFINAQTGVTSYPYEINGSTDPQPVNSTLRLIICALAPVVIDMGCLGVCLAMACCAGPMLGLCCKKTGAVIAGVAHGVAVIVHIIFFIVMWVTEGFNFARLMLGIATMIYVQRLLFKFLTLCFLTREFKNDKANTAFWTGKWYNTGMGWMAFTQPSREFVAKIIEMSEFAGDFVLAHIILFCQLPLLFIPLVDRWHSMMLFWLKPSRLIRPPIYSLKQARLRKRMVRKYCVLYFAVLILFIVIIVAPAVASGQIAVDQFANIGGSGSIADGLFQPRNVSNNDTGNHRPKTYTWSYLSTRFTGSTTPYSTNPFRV

[11] = tested on: C. albicans ATCC 90028 and DPL22; experiment: MIC of strains used in mouse study (Table 3); conditions: Candida albicans
C. albicans NRRL Y-477 [12] = experiment: Broth microdilution MIC (CLSI), Examples 3 and 4; conditions: Candida albicans
Experimental: Antifungal susceptibility testing. […] MIC assays were performed in triplicate.

C. glabrata [13] = experiment: Antifungal susceptibility testing (CLSI M27-S4), WT and echinocandin-resistant isolates; conditions: for MIC median (range): 24 hr
Experimental: (§2) Antifungal susceptibility testing. Antifungal susceptibility testing was performed in triplicate for a collection of 95 Candida strains (20 C. albicans, 20 C. glabrata, 2 C. dubliniensis, 15 C. krusei, 19 C. parapsilosis, and 19 C. tropicalis) that included 30 isolates showing an echinocandin resistance (ER) phenotype (caspofungin-resistant) in accordance with the guidelines described in the Clinical and Laboratory Standards Institute (CLSI) document M27-S4. […] Stock solutions of the drugs were kept at −86° C.

C. tropicalis = experiment: as above; conditions: 24 hr
Experimental: as §2

[14] = SDA, minimum concentration to cleanly inhibit growth
[15] = replicate plates 1-3, listed as CMP1

CCCCCOc1ccc(-c2ccc(-c3ccc(C(=O)N[C@H]4C[C@@H](O)[C@@H](OCC[N+](C)(C)C)NC(=O)[C@@H]5[C@@H](O)[C@@H](C)CN5C(=O)[C@H]([C@@H](C)O)NC(=O)[C@H]([C@H](O)[C@@H](O)c5ccc(O)cc5)NC(=O)[C@@H]5C[C@@H](O)CN5C(=O)[C@H]([C@@H](C)O)NC4=O)cc3)cc2)cc1 [Compound 1] ({pTerphenylCO(4''-OnC5H11)}-[Orn(4R-OH,5R-OCH2CH2NMe3+)]T[Hyp][hTyr(3S-OH,4S-OH)]T[Pro(3S-OH,4S-Me)]; lactam 1-C)
MPC (C. glabrata [1]): 16 µg/mL
Median mutation frequency (C. albicans NRRL Y-477 [2]): 5.00E−08
Plate concentration (C. albicans NRRL Y-477 [2]; [14]): 0.06 µg/mL
Freq. (replicate mutation frequency) (C. albicans NRRL Y-477 [2]; [15]): 5.00E−08 and 2.27E−08 and 5.47E−08
Median mutation frequency (C. krusei ATCC 6258): 3.86E−09
Plate concentration (C. krusei ATCC 6258; [14]): 0.25 µg/mL
Freq. (replicate mutation frequency) (C. krusei ATCC 6258; [15]): 1.54E−08 and 3.51E−09 and 3.86E−09
MIC ([3]; 48 h, ATCC 90030 P20-1, selecting drug ANID, Fks2 HS1 D666I, 48 h read): 2 µg/mL
MIC ([3]; ATCC 2001 P20-2, selecting drug CAS): 2 µg/mL
MIC ([3]; ATCC 2001 P20-2, selecting drug CMP1): 1 µg/mL
MIC ([3]; ATCC 90030 P20-2, selecting drug CMP1): 1 µg/mL
MIC ([3]; read-out: MIC P20, ATCC 2001, total population after 20 passages with the selecting drug, MIC of selecting drug): 1 µg/mL
MIC ([3]; read-out: MIC P20, ATCC 90030, total population after 20 passages with the selecting drug, MIC of selecting drug): 1 µg/mL
Number of isolates at MIC 0.125 μg/mL ([4]; 21 VVC isolates, 24 h, pH 4): 2
Number of isolates at MIC 0.25 μg/mL ([4]; 21 VVC isolates, 24 h, pH 4): 3
Number of isolates at MIC 0.5 μg/mL ([4]; 21 VVC isolates, 24 h, pH 4): 15
Number of isolates at MIC 2 μg/mL ([4]; 21 VVC isolates, 24 h, pH 4): 1
Number of isolates at MIC 0.06 μg/mL ([4]; 21 VVC isolates, 24 h, pH 7): 3
Number of isolates at MIC 0.125 μg/mL ([4]; 21 VVC isolates, 24 h, pH 7): 17
Number of isolates at MIC 2 μg/mL ([4]; 21 VVC isolates, 24 h, pH 7): 1
Number of isolates at MIC 0.25 μg/mL ([4]; 21 VVC isolates, 48 h, pH 4): 2
Number of isolates at MIC 0.5 μg/mL ([4]; 21 VVC isolates, 48 h, pH 4): 8
Number of isolates at MIC 1 μg/mL ([4]; 21 VVC isolates, 48 h, pH 4): 9
Number of isolates at MIC 2 μg/mL ([4]; 21 VVC isolates, 48 h, pH 4): 2
Number of isolates at MIC 0.06 μg/mL ([4]; 21 VVC isolates, 48 h, pH 7): 2
Number of isolates at MIC 0.125 μg/mL ([4]; 21 VVC isolates, 48 h, pH 7): 16
Number of isolates at MIC 0.25 μg/mL ([4]; 21 VVC isolates, 48 h, pH 7): 1
Number of isolates at MIC 0.5 μg/mL ([4]; 21 VVC isolates, 48 h, pH 7): 1
Number of isolates at MIC 2 μg/mL ([4]; 21 VVC isolates, 48 h, pH 7): 1
MIC90 ([4]; 24 h, pH 4): 0.5 µg/mL
MIC90 ([4]; 24 h, pH 7): 0.125 µg/mL
MIC90 ([4]; 48 h, pH 4): 1 µg/mL
MIC90 ([4]; 48 h, pH 7): 0.25 µg/mL
MIC90 ([5]; 24 h, pH 4): 2 µg/mL
MIC90 ([5]; 24 h, pH 7): 2 µg/mL
MIC90 ([5]; 48 h, pH 4): 2 µg/mL
MIC90 ([5]; 48 h, pH 7): 4 µg/mL
MIC90 ([6]; 24 h, pH 4): 0.5 µg/mL
MIC90 ([6]; 24 h, pH 7): 0.125 µg/mL
MIC90 ([6]; 48 h, pH 4): 2 µg/mL
MIC90 ([6]; 48 h, pH 7): 0.125 µg/mL
Cumulative % of isolates inhibited at MIC 0.015 μg/mL (Candida tropicalis; 51 isolates): (56.9) %
Cumulative % of isolates inhibited at MIC 0.03 μg/mL (Candida tropicalis; 51 isolates): (88.2) %
Cumulative % of isolates inhibited at MIC 0.06 μg/mL (Candida tropicalis; 51 isolates): (100.0) %
Cumulative % of isolates inhibited at MIC ≤0.008 μg/mL (Candida tropicalis; 51 isolates): (3.9) %
Number of isolates inhibited at MIC 0.015 μg/mL (Candida tropicalis; 51 isolates): 27
Number of isolates inhibited at MIC 0.03 μg/mL (Candida tropicalis; 51 isolates): 16
Number of isolates inhibited at MIC 0.06 μg/mL (Candida tropicalis; 51 isolates): 6
Number of isolates inhibited at MIC ≤0.008 μg/mL (Candida tropicalis; 51 isolates): 2
MIC50 (Candida tropicalis; Candida tropicalis, 51 isolates, read-out: MIC50): 0.015 µg/mL
MIC90 (Candida tropicalis; Candida tropicalis, 51 isolates, read-out: MIC90): 0.06 µg/mL
concentration at which all isolates were inhibited (Candida tropicalis; n=51): ≤ 0.06 µg/mL
Cumulative % of isolates inhibited at MIC 0.015 μg/mL (Candida krusei): (18.8) %
Cumulative % of isolates inhibited at MIC 0.03 μg/mL (Candida krusei): (87.5) %
Cumulative % of isolates inhibited at MIC 0.06 μg/mL (Candida krusei): (100.0) %
Number of isolates inhibited at MIC 0.015 μg/mL (Candida krusei): 3
Number of isolates inhibited at MIC 0.03 μg/mL (Candida krusei): 11
Number of isolates inhibited at MIC 0.06 μg/mL (Candida krusei): 2
concentration at which all isolates were inhibited (Candida krusei): ≤ 0.06 µg/mL
MIC50 (Candida krusei; Pichia kudriavzevii, read-out: MIC50): 0.03 µg/mL
MIC90 (Candida krusei; Pichia kudriavzevii, read-out: MIC90): 0.06 µg/mL
Cumulative % of isolates inhibited at MIC 0.03 μg/mL (Candida dubliniensis): (54.5) %
Cumulative % of isolates inhibited at MIC 0.06 μg/mL (Candida dubliniensis): (90.9) %
Cumulative % of isolates inhibited at MIC 0.12 μg/mL (Candida dubliniensis): (100.0) %
Number of isolates inhibited at MIC 0.03 μg/mL (Candida dubliniensis): 6
Number of isolates inhibited at MIC 0.06 μg/mL (Candida dubliniensis): 4
Number of isolates inhibited at MIC 0.12 μg/mL (Candida dubliniensis): 1
MIC50 (Candida dubliniensis; Candida dubliniensis, read-out: MIC50): 0.03 µg/mL
MIC90 (Candida dubliniensis; Candida dubliniensis, read-out: MIC90): 0.06 µg/mL
Cumulative % of isolates inhibited at MIC 0.12 μg/mL (Candida orthopsilosis): (10.0) %
Cumulative % of isolates inhibited at MIC 0.25 μg/mL (Candida orthopsilosis): (40.0) %
Cumulative % of isolates inhibited at MIC 0.5 μg/mL (Candida orthopsilosis): (50.0) %
Cumulative % of isolates inhibited at MIC 1 μg/mL (Candida orthopsilosis): (90.0) %
Cumulative % of isolates inhibited at MIC 2 μg/mL (Candida orthopsilosis): (100.0) %
Number of isolates inhibited at MIC 0.12 μg/mL (Candida orthopsilosis): 1
Number of isolates inhibited at MIC 0.25 μg/mL (Candida orthopsilosis): 3
Number of isolates inhibited at MIC 0.5 μg/mL (Candida orthopsilosis): 1
Number of isolates inhibited at MIC 1 μg/mL (Candida orthopsilosis): 4
Number of isolates inhibited at MIC 2 μg/mL (Candida orthopsilosis): 1
MIC50 (Candida orthopsilosis; Lodderomyces orthopsilosis, read-out: MIC50): 0.5 µg/mL
MIC90 (Candida orthopsilosis; Lodderomyces orthopsilosis, read-out: MIC90): 1 µg/mL
reduction in fungal counts ([7]; 3, 10, and 30 mg/kg IP once, 48 and 72 hr time points): two log reduction
antimicrobial effect versus vehicle (one-way ANOVA, Dunnett's test) ([7]; 48 and 72 hr after infection, Compound 1 3, 10, 30 mg/kg IP, amphotericin B 1 and 3 mg/kg IV, fluconazole 20 mg/kg PO): Significant antimicrobial effects
IC50 ([8]; IC50, DPL1002, WT): 11.6 nM
IC50 ([8]; IC50, glucan synthase, ATCC 90028, WT): 11.4 nM
IC50 ([8]; glucan synthase, DPL22, Fks1p S645P/S): 24.5 nM
IC50 [9]: 283 nM
IC50 [10]: 2150 nM
MIC ([11]; ATCC90028, ATCC 90028, Fks1p WT, Fks2p WT): < 0.03 µg/mL
MIC ([11]; ATCC90028, DPL22, Fks1p S645P/S): 0.5 µg/mL
MIC (C. albicans NRRL Y-477 [12]; NRRLY477): 0.25 µg/mL
MIC (C. albicans NRRL Y-477 [12]; NRRLY477, 24 h, read-out: Broth MIC): 0.03 µg/mL
% of ER isolates with an MIC (C. glabrata [13]; C. glabrata ER isolates (n=11)): 18%
MIC median (range) (C. glabrata [13]; ER (11 isolates)): 1.00 (0.12-4) mg/L
MIC median (range) (C. glabrata [13]; WT (9 isolates)): 0.06 (0.03-0.12) mg/L
MIC median (range) (C. tropicalis; ER (4 isolates)): 2.00 (0.5-2) mg/L
MIC median (range) (C. tropicalis; WT (15 isolates)): 0.03 (0.03)^ mg/L
